Data published in the SangsterLogP compilation.

Key:
[1] = method code SF, from DOI: 10.1016/s0960-894x(00)80094-3; settings: pH 7.4
[2] = method code SF-AS, from DOI: 10.1021/jm0495273.s001, PMID: 15974600; settings: pH 7.4
[3] = method code SF-AS, from DOI: 10.1016/0039-9140(93)80165-n, PMID: 18965747; settings: pH 2.0
[4] = method code SF-AS, from DOI: 10.1021/acs.jmedchem.5b00731, PMID: 26397825; settings: pH 7.4
[5] = method code SF-AS, from DOI: 10.1016/j.dyepig.2012.09.011; settings: pH 7.4
[6] = method code SF-AS, from DOI: 10.1016/s0021-9673(01)89384-5
[7] = not given; remark: listed apart in the source
[8] = method code SF-HPLC, from DOI: 10.1016/j.ejps.2013.10.002, PMID: 24161609
[9] = method code G-HPLC, from DOI: 10.1016/s0021-9673(01)94303-1
[10] = method code SF-AS, from Suikov, S.Yu.; Bondarenko, A.V.; Bogza, S.L.; Lutsyk, A.I. (2003). Distribution of 5-aminopyrazoles and 5-aminoisoxazoles in the octanol-water system. Ukr. Khim. Zh. (Russ. Ed.), 69(5/6)31-34.
[11] = method code SF-AS, from PMID: 2160644
[12] = method code SF-GLC, from Boikov, Yu.; Shibaev, V.; Gaidamaka, V.; V'yunov, K. (1989). Study of correlation between extraction characteristics of glycidyl ethers and theri structure. 62(1)177-179.
[13] = method code SF-CR+AS, from DOI: 10.1021/bi00514a045, PMID: 7248282; settings: pH 7.0
[14] = method code SF-TN, from Korenman, I M.; Gurevich, N.; Kulagina, G. (1973). Extraction of certain n-alkylamines from aqueous solutions. Zh. Prikl. Khim., 46(3)726-728.
[15] = method code SF, from DOI: 10.1021/bi00507a030, PMID: 7213619; settings: pH 1.0
[16] = method code SF-RC, from DOI: 10.1016/s0969-8051(01)00233-5, PMID: 11518650
[17] = method code SF, from Ganellin, C. R., & Durant, G. J. (1981). Histamine H2-receptor agonists and antagonists. Burgers Medicinal Chemistry, 3, 487-552.; settings: pH 11.8
[18] = method code SF-AS, from Lee, B.; Shin, J.; Lim, M.; Jang, T.; Park, J.; Kim, K.; Kang, W. (1997). Partition Property of 5-Nitrothiopyrimidine Nucleoside. Bull Korean Chem Soc, 18(7)734-736.; settings: pH 7.0
[19] = method code SF-AS, from DOI: 10.1016/0223-5234(93)90135-2; settings: pH 12.0
[20] = method code SF-RC, from DOI: 10.1023/a:1015913817221, PMID: 2798313; settings: pH 7.4
[21] = not given; remark: listed apart in the source
[22] = method code SF-AS, from DOI: 10.1002/jps.2600600712, PMID: 4398902
[23] = method code SF-FL, from DOI: 10.1562/0031-8655(2004)79<242:pmolop>2.0.co;2, PMID: 15115296; settings: pH 7.4
[24] = not given; remark: listed apart in the source
[25] = method code SF-TN, from Korenman, I M.; Lunicheva, V.; Pomerantseva, G.; Khairulina, D. (1974). Distribution of methacrylic acid between organic solvents and water. Zh. Prikl. Khim., 47(10)2432-2434.
[26] = method code SF-HPLC, from DOI: 10.1002/ps.2780220406
[27] = method code SF-AS, from DOI: 10.1562/0031-8655(2002)076<0127:dlbcop>2.0.co;2, PMID: 12194207; settings: pH 7.3
[28] = method code SF-HPLC, from DOI: 10.1021/jm00056a006, PMID: 8474102; settings: pH 7.4
[29] = method code SF-AS, from DOI: 10.1021/jm020389w, PMID: 12620073; settings: pH 7.4
[30] = not given; remark: listed apart in the source
[31] = method code SF-AS, from PMID: 2551304; settings: pH 7.4
[32] = not given; remark: listed apart in the source
[33] = not given; remark: listed apart in the source
[34] = method code SF-HPLC, from DOI: 10.1016/0378-5173(93)90356-k; settings: pH 7.4
[35] = method code SF-TN, from DOI: 10.1007/bf00632830
[36] = method code SF, from DOI: 10.1016/j.jiec.2010.03.003
[37] = method code SF-AS, from DOI: 10.1021/jm0104926, PMID: 11960499
[38] = method code SF-HPLC, from DOI: 10.1016/s0021-9673(01)88640-4
[39] = not given; remark: listed apart in the source
[40] = not given; remark: listed apart in the source
[41] = method code SF-AS, from DOI: 10.1016/0223-5234(92)90105-a
[42] = method code SF-AS, from DOI: 10.1016/0378-5173(93)90388-v
[43] = not given; remark: listed apart in the source

SMILES: NC1CCN(O)C1=O (stereo not given)
- logD [1]: -3.52

SMILES: Nc1nc(S)c2[nH]cnc2n1
- logD [2]: -0.16

SMILES: CC(C)(C)C(=O)O
- logD [3]: 1.42

SMILES: Cc1nccn1C
- logP: -0.04

SMILES: CCN(CC)c1ccc(C=C2CC(=Cc3ccc(N(COCCOCCOCCOC)COCCOCCOCCOC)cc3)C2=O)cc1
- logD [4]: 3.2

SMILES: C1=Cc2nc1c(-c1cccs1)c1ccc([nH]1)c(-c1cccs1)c1nc(c(-c3cccs3)c3ccc([nH]3)c2-c2cccs2)C=C1
- logD [5]: 2.74

SMILES: Cc1nccnn1
- logP [6]: -0.55

SMILES: FC(F)(F)Cl
- logP [7]: 1.56

SMILES: O=C(O)[C@H](O)[C@@H](O)C(=O)O
- logP [8]: -1.2

SMILES: CCCCBr
- logP [9]: 2.75

SMILES: Nc1c(-c2ccccc2)c(-c2ccccc2)nn1-c1ccccc1
- logP [10]: 4.04

SMILES: O=C(O)c1cc(=O)[nH]c(=O)[nH]1
- logP [11]: -0.83

SMILES: CCOCC1CO1 (stereo not given)
- logP [12]: 0.27

SMILES: N#CSO
- logD [13]: 0.32

SMILES: CCCCN
- logP [14]: 0.74

SMILES: CCC(N)=O
- logD [15]: -0.66

SMILES: CN(C)CCCF
- logP [16]: 1.27

SMILES: NCCc1c[nH]cn1
- logD [17]: -0.7

SMILES: S=c1cc[nH]c(=S)[nH]1
- logD [18]: -0.86

SMILES: NCCc1nccs1
- logD [19]: 0.16

SMILES: NC(N)=S
- logD [20]: -0.92

SMILES: COCCOCCOCCOCN(C)c1ccc(C=C2CC(=Cc3ccc(N(C)COCCOCCOCCOC)cc3)C2=O)cc1
- logD [4]: 2.86

SMILES: COc1ccc(-c2cc(N)n[nH]2)cc1
- logP [10]: 1.42

SMILES: CCCOC(=O)CC(Cc1cncn1C)C(CC)C(=O)OCc1ccc(COC(=O)C(CC)C(CC(=O)OCCC)Cc2cncn2C)cc1 (stereo not given)
- logP [21]: 5.47

SMILES: S=C1CCCO1
- logP [22]: 0.6

SMILES: Oc1cccc(-c2c3nc(c(-c4cccc(O)c4)c4ccc([nH]4)c(-c4cccc(O)c4)c4nc(c(-c5cccc(O)c5)c5ccc2[nH]5)C=C4)C=C3)c1
- logD [23]: 4.93

SMILES: Cn1cc[nH]c1=S
- logP [24]: -0.22

SMILES: C=C(C)C(=O)O
- logP [25]: 0.93

SMILES: Clc1ccc(Cn2cncn2)cc1Cl
- logP [26]: 2.54

SMILES: c1ccc2c(c1)-c1cc3[nH]c(cc4nc(cc5[nH]c(cc-2n1)c1ccccc51)-c1ccccc1-4)c1ccccc31
- logD [27]: 3.35

SMILES: CC(C)CC(O)C(O)C(CC1CCCCC1)NC(=O)C(Cc1nccs1)NC(=O)C(Cc1ccccc1)CS(=O)(=O)C1CN(C)C1 (stereo not given)
- logD [28]: 3.89

SMILES: CCOC(=O)Nc1ccc2cc3ccc(N)c(CO)c3nc2c1
- logD [29]: 1.55

SMILES: CCC[N+](=O)[O-]
- logP [30]: 0.86

SMILES: CCCCOC(=O)CC(Cc1cncn1C)C(CC)C(=O)OCc1ccc(COC(=O)C(CC)C(CC(=O)OCCCC)Cc2cncn2C)cc1 (stereo not given)
- logP [21]: 6.87

SMILES: Nc1ccncc1F
- logD [31]: 0.63

SMILES: O=S(=O)(O)c1ccc(-c2c3nc(c(-c4ccc(S(=O)(=O)O)cc4)c4ccc([nH]4)c(-c4ccccc4)c4nc(c(-c5ccccc5)c5ccc2[nH]5)C=C4)CC3)cc1
- logD [23]: 1.79

SMILES: COP(=O)(OC)OC(Br)C(Cl)(Cl)Br (stereo not given)
- logP [32]: 2.19

SMILES: COP(=O)(OC)OC=C(Cl)Cl
- logP [33]: 1.4

SMILES: O=c1[nH]cc(F)c(=O)[nH]1
- logD [34]: -0.7

SMILES: Nc1cccc(-c2c3nc(c(-c4cccc(N)c4)c4ccc([nH]4)c(-c4cccc(N)c4)c4nc(c(-c5cccc(N)c5)c5ccc2[nH]5)C=C4)C=C3)c1
- logD [5]: 3.75

SMILES: CN(C)C
- logP [35]: 0.27

SMILES: COC(C)(C)C
- logP [36]: 1.41

SMILES: [N-]=[N+]=CC(F)(F)F
- logP [37]: 1.6

SMILES: Oc1cccc(-c2c3nc(c(-c4cccc(O)c4)c4ccc([nH]4)c(-c4cccc(O)c4)c4nc(c(-c5cccc(O)c5)c5ccc2[nH]5)CC4)C=C3)c1
- logD [27]: 5.42

SMILES: N#CN=[N+]([O-])c1cnccn1
- logP [38]: 0.1

SMILES: O=C(O)CNCP(=O)(O)O
- logP [39]: -3.3

SMILES: ClCC(Cl)Cl
- logP [40]: 1.98

SMILES: CCOC(=O)Nc1ccc2nn(C)nc2c1
- logP [41]: 1.83

SMILES: CC1CCC(=O)N1 (stereo not given)
- logP [42]: -0.1

SMILES: CCOCCO
- logP [43]: -0.28
